Columns and labels:
LU-01-0030 xenograft = LU-01-0030 xenograft model, first study, Compound 1 and radiation; assay type: in vivo, mice
From the text: The LU-01-0030 xenograft model is a human primary non-small cell lung cancer model. In the first study with the LU-01-0030 model, approximately nine week old female BALB/c nude (Shanghai Sino-British SIPPR/BK Laboratory Animal Co., LTD.) mice were implanted subcutaneously with approximate 30 mm^3 LU-01-0030 tumor slices in the right flank. When the mean tumor volume reached approximately 159 mm^3, the animals were randomized into 10 treatment groups (n=8/group).
Compound 1 [((1R,2R,3S,4R)-2,3-dihydroxy-4-(2-(3-(trifluoromethylthio) ? phenyl)pyrazolo[1,5-a]pyrimidin-7-ylamino)cyclopentyl)methyl sulfamate] is formulated in 10% HPbCD in sterile water and administered intravenously on a BIW (twice/week schedule; Monday and Thursday, i.e. days 0, 3, 7, 10, 14, 17) for 3 weeks in the HN-13-0014 and LU-01-0030 (first study) models. Compound 1 formulation was prepared weekly and stored at room temperature in the dark.
Beam-focused radiation was delivered using a either 1 or 2 Gray dosed on days 0, 1, 7, and 8 or on days 0, 3, 7, and 10 in the HN-13-0014 and LU-01-0030 (first study) models. A Rad Source RS-2000 X-ray irradiator was used for therapy (Rad Source). Before radiation, animals were anesthetized by i.p. injection using 1.0% sodium pentobarbital at 80 mg/kg (Vendor: Sigma). Focused radiation was applied to each mouse at 1 Gy/min.
(§1) Tumors were measured twice weekly using vernier calipers. Tumor volumes were calculated using the following formula: (0.5×[length×width^2]). Treatment groups and dosing/treatment schedules are indicated in Tables 1a, 2a, 3a, 4a, and 5a below. Tumor size and body weight are measured approximately twice a week for the duration of the study. Mice are euthanized when their tumor volume reached approximately 1000 mm^3. Tumor growth continued to be monitored after the dosing period in some studies. In Tables 1a, 2a, 3a, 4a, and 5a tumor volumes are shown for HN-13-0014 (day 21), LU-01-0030 (day 21), the second LU-01-0030 study (day 20), LU-01-0266 (day 20), ST-02-0004 (day 21) and FIN-13-0007 (day 24), respectively. Average tumor volume is reported as a function of time for selected groups of selected studies.
(§2) Measurements from day 0 to day 20, day 21 or day 24 are analyzed as specified in Tables below. All tumor volumes have a value of 1 added to them before log10 transformation. For each animal, the log tumor volume at day 0 is subtracted from the log tumor volume on the subsequent days. This difference vs. time is used to calculate an area under the curve (AUC) for each animal using the trapezoid rule. In instances when an animal in a treatment group is removed early from the study, the last observed tumor value is carried forward through all subsequent time points. The synergy score for the combination of agents A and B is defined as 100*(mean(AUCAB)−mean(AUCA)−mean(AUCB)+mean(AUCctl))/mean(AUCctl): where AUCAB, AUCA, AUCB, and AUCctl are the AUC values for animals in the combination group, the A group, the B group, and the control group, respectively. The standard error of the synergy score is computed based on the variation in the AUC values among the animals. […] If the P-value is above 0.05, then the combination is considered to be additive. If the P-value is below 0.05, and the synergy score is less than zero, then the combination is considered to be synergistic. If the P-value is below 0.05 and the synergy score was greater than zero, but the mean AUC for the combination was lower than the lowest mean AUC among the two single agent treatments, then the combination was sub-additive. If the P-value is below 0.05 and if the synergy score was greater than zero, and the mean AUC for the combination was greater than the mean AUC for at least one of the single agent treatments, then the combination was antagonistic.

HN-13-0007 xenograft = HN-13-0007 xenograft model, Compound 1 and radiation; assay type: in vivo, mice; settings: for Classification / Synergy score: through Day 24
From the text: The HN-13-0007 xenograft model is a human primary head and neck […] cancer model. Approximately nine week old female BALB/c nude (Shanghai Sino-British SIPPR/BK Laboratory Animal Co., LTD.) mice were implanted subcutaneously with approximate 30 mm^3 HN-13-0007 tumor slices in the right flank. When the mean tumor volume reached approximately 130 mm^3, the animals were randomized into 10 treatment groups (n=8/group).
Compound 1 [((1R,2R,3S,4R)-2,3-dihydroxy-4-(2-(3-(trifluoromethylthio) ? phenyl)pyrazolo[1,5-a]pyrimidin-7-ylamino)cyclopentyl)methyl sulfamate] is formulated in 10% HPbCD in sterile water and administered intravenously on days 0, 3, 7, 10, 14, 17 in the LU-01-0266 and HN-13-0007 models and on days 0, 3, 8, 11, 15, 18 in the ST-02-0004 model and in the second study with the LU-01-0030 model. Compound 1 formulation was prepared weekly and stored at room temperature in the dark.
Beam-focused radiation was delivered using 2 Gray dosed on days 0, 1, 7, and 8 or on days 0, 3, 7, and 10 in the LU-01-0266 and HN-13-0007 models. In the ST-02-0004 model 2 Gray of radiation was delivered on days 0, 1, 3, and 8. A Rad Source RS-2000 X-ray irradiator was used for therapy (Rad Source). Before radiation, animals were anesthetized by i.p. injection using 1.0% sodium pentobarbital at 80 mg/kg (Vendor: Sigma). Focused radiation was applied to each mouse at 1 Gy/min.
as §1, §2

[1] = 6.25 mg/kg Compound 1 + 2 Gy Radiation D0, 1, 7, 8
[2] = 6.25 mg/kg Compound 1 + 2 Gy Radiation D0, 3, 7, 10
[3] = 6.25 mg/kg Compound 1 IV BIWx3 + 2 Gy Radiation Beam D 0, 1, 7, 8
[4] = 6.25 mg/kg Compound 1 IV BIWx3 + 2 Gy Radiation Beam D 0, 3, 7, 10
[5] = 15 mg/kg Compound 1 + 2 Gy Radiation D0, 1, 7, 8
[6] = 15 mg/kg Compound 1 + 2 Gy Radiation D0, 3, 7, 10
[7] = 15 mg/kg Compound 1 IV BIWx3 + 2 Gy Radiation Beam D 0, 1, 7, 8
[8] = 15 mg/kg Compound 1 IV BIWx3 + 2 Gy Radiation Beam D 0, 3, 7, 10
[9] = Compound 1 at 15 mg/kg as single agent

SMILES: NS(=O)(=O)OC[C@H]1C[C@@H](Nc2ccnc3cc(-c4cccc(SC(F)(F)F)c4)nn23)[C@H](O)[C@@H]1O [Compound 1, ((1R,2R,3S,4R)-2,3-dihydroxy-4-(2-(3-(trifluoromethylthio)phenyl)pyrazolo[1,5-a]pyrimidin-7-ylamino)cyclopentyl)methyl sulfamate]
- Classification (LU-01-0030 xenograft; [1]): Additive (If the P-value is above 0.05, then the combination is considered to be additive)
- Synergy score (LU-01-0030 xenograft; [1]): 5.4
- Classification (LU-01-0030 xenograft; [2]): Additive (If the P-value is above 0.05, then the combination is considered to be additive)
- Synergy score (LU-01-0030 xenograft; [2]): −22.2
- Tumor Volume Day 21 (LU-01-0030 xenograft; [3]): 101.9 mm^3
- Tumor Volume Day 21 (LU-01-0030 xenograft; [4]): 106.3 mm^3
- Tumor Volume Day 21 (LU-01-0030 xenograft; 6.25 mg/kg Compound 1 IV BIWx3, single agent): 555.7 mm^3
- anti-tumor activity compared to the vehicle control (LU-01-0030 xenograft; 6.25 mg/kg Compound 1 as a single agent): no anti-tumor activity
- Classification (LU-01-0030 xenograft; [5]): Synergy (If the P-value is below 0.05, and the synergy score is less than zero, then the combination is considered to be synergistic)
- Synergy score (LU-01-0030 xenograft; [5]): −139.6
- Classification (LU-01-0030 xenograft; [6]): Synergy (If the P-value is below 0.05, and the synergy score is less than zero, then the combination is considered to be synergistic)
- Synergy score (LU-01-0030 xenograft; [6]): −165.9
- Tumor Volume Day 21 (LU-01-0030 xenograft; [7]): 2.3 mm^3
- Tumor Volume Day 21 (LU-01-0030 xenograft; [8]): 2.8 mm^3
- Tumor Volume Day 21 (LU-01-0030 xenograft; 15 mg/kg Compound 1 IV BIWx3, single agent): 151.3 mm^3
- anti-tumor activity, single agent (LU-01-0030 xenograft; [9]): tumor stasis
- combination effect (LU-01-0030 xenograft; Compound 1 with 2 Gy radiation): additive-to-synergistic combination effect
- Tumor Volume Day 24 (HN-13-0007 xenograft; [3]): 318.8 mm^3
- Tumor Volume Day 24 (HN-13-0007 xenograft; [4]): 340 mm^3
- Tumor Volume Day 24 (HN-13-0007 xenograft; 6.25 mg/kg Compound 1 IV BIWx3 = D 0, 3, 7, 10, 14, 17, single agent): 442.4 mm^3
- Tumor Volume Day 24 (HN-13-0007 xenograft; [7]): 358.3 mm^3
- Tumor Volume Day 24 (HN-13-0007 xenograft; [8]): 299.7 mm^3
- Tumor Volume Day 24 (HN-13-0007 xenograft; 15 mg/kg Compound 1 IV BIWx3 = D 0, 3, 7, 10, 14, 17, single agent): 362.1 mm^3
- tumor growth inhibition, single agent (HN-13-0007 xenograft; [9]): minimal tumor growth inhibition
- combination effect (HN-13-0007 xenograft; Compound 1 with 2 Gy radiation): additive combination effect
- anti-tumor activity compared to the vehicle control (HN-13-0007 xenograft; single agent, IV at 6.25 mg/kg for 3 weeks on Days 0, 3, 7, 10, 14, 17): no anti-tumor activity
- Classification (HN-13-0007 xenograft; [1]): Additive (If the P-value is above 0.05, then the combination is considered to be additive)
- Synergy score (HN-13-0007 xenograft; [1]): −20
- Classification (HN-13-0007 xenograft; [2]): Additive (If the P-value is above 0.05, then the combination is considered to be additive)
- Synergy score (HN-13-0007 xenograft; [2]): −24
- Classification (HN-13-0007 xenograft; [5]): Additive (If the P-value is above 0.05, then the combination is considered to be additive)
- Synergy score (HN-13-0007 xenograft; [5]): 24
- Classification (HN-13-0007 xenograft; [6]): Additive (If the P-value is above 0.05, then the combination is considered to be additive)
- Synergy score (HN-13-0007 xenograft; [6]): −13
